Measurements reported in the RepoRT retention time repository.

Assay: RP, Waters CORTECS UPLC C18, 100 × 2.1 mm, 1.6 µm, 40 °C, 0.4 mL/min, estimated dead time 0.55 min; A: water + 0.1% formic acid, pH 3; B: acetonitrile + 0.1% formic acid, pH 3; gradient (min/%B) 0/5 1.12/5 6.41/99.5 10.01/99.5
Details: stereoisomer not certain

Row | SMILES | LC retention time [min]
1 | CC(C)CC(=O)OC(CC(=O)[O-])C[N+](C)(C)C [Isovaleryl-L-carnitine] | 2.61
2 | CCOP(=O)(NC(C)C)Oc1ccc(SC)c(C)c1 (stereo not given) [Fenamiphos] | 4.89
3 | CNC(=O)C=C(C)OP(=O)(OC)OC [Monocrotophos] | 2.65
4 | Clc1ccccc1-c1nnc(-c2ccccc2Cl)nn1 [Clofentezine] | 5.65
5 | CCC(=O)OC(CC(=O)[O-])C[N+](C)(C)C [Propionyl-L-carnitine] | 0.871
6 | Cn1c(=O)[nH]c2ncn(C)c2c1=O [PARAXANTHINE] | 2.15
7 | COC(=O)N(C(=O)N1COC2(C(=O)OC)Cc3cc(Cl)ccc3C2=N1)c1ccc(OC(F)(F)F)cc1 (stereo not given) [Indoxacarb] | 5.75
8 | CNC(=O)Oc1ccc(N(C)C)c(C)c1 [Aminocarb] | 1.6
9 | CSCC1OC(n2cnc3c(N)ncnc32)C(O)C1O (stereo not given) [METHYLTHIOADENOSINE] | 2.19
10 | CNCCc1c[nH]c2ccccc12 [N-METHYLTRYPTAMINE] | 2.54
11 | O=C(NC(=O)c1c(F)cccc1F)Nc1cc(Cl)c(OC(F)(F)C(F)F)c(Cl)c1 [Hexaflumuron] | 5.61
12 | CCOc1ccc(NC(=O)OC(C)C)cc1OCC [Diethofencarb] | 4.83
13 | CCCCOC(=O)N(C)SN(C)C(=O)Oc1cccc2c1OC(C)(C)C2 [Furathiocarb] | 6.05
14 | Nc1nc2ncc(CNc3ccc(C(=O)NC(CCC(=O)O)C(=O)O)cc3)nc2c(=O)[nH]1 (stereo not given) [FOLATE] | 2.38
15 | O=C(O)CCCc1c[nH]c2ccccc12 [Indole-3-butyric acid] | 3.94
